Assay: Hair treatment protocol: solvent pre-treatment before oxidative dyeing, colour strength K/S measured by spectrophotometer
Conditions: for K/.S vs. DI Water: switch soaked 5 minutes in neat solvent, then level 3 oxidative hair colorant (Nice n' Easy) 30 minutes at 30°C, dye uptake change vs. DI water

Row | Compound | K/S vs. DI Water (Glycerine Content 10 % wt. in deionised water as pre-treatment composition) [%] | K/S vs. DI Water (Glycerine Content 25 % wt. in deionised water as pre-treatment composition) [%] | K/S vs. DI Water (Glycerine Content 50 % wt. in deionised water as pre-treatment composition) [%] | K/S vs. DI Water (Glycerine Content 70 % wt. in deionised water as pre-treatment composition) [%] | K/.S vs. DI Water [%]
1 | OCC(O)CO [Glycerine] | -2 | -4 | -20 | -43 | -40
2 | OCCOCCO [Diethyleneglycol] | – | – | – | – | -50

Reference: EP2092932A2, “Processes to pre-treat hair with organic solvents” (The Procter and Gamble Company, priority 2006, dated 2008)
